US6696468B2, “(S)-4-AMINO-5-CHLORO-2-METHOXY-N-[1-[1-(2-TETRAHYDROFURYL-CARBONYL)-4-[…]]-4-[…]]BENZAMIDE, PROCESS FOR THE PREPARATION THEREOF, PHARMACEUTICAL COMPOSITION CONTAINING THE SAME, AND INTERMEDIATE THEREFOR” (priority 2002, dated 2004)
Structures can show the parent of a compound that is named as a salt.

Tests used:
[1] = system: guinea pigs of Std-Hartley strain; assay: Effect on electrocardiogram in guinea pigs (QTc); format: in vivo, guinea pig; details: anesthetized guinea pigs, iv infusion for 15 minutes, maximum dose 30 mg/kg
Protocol: Male guinea pigs of Std-Hartley strain weighing 350-500 g were anesthetized with urethan (1.5 g/kg, ip). […] RR (second): time from the peak of R-wave to the peak of the next R-wave in electrocardiogram (usually, expressed by “second”). […] Consequently, as an index for evaluating the effects on the heart, a dose to be required to prolong the QTc intervals by 5% of the electrocardiogram (ED5%) in guinea pigs was measured, which has widely been used.

mice of Std-ddY strain = assay: Assay on defecation in mice; format: in vivo; design: key: −: Inactive; +: Moderately stimulated (P < 0.05); ++: Markedly stimulated (p < 0.01); details: fecal pellet weight vs control, Dunnett's test
Protocol: Male mice of Std-ddY strain weighing 25-30 g were used. Free access to food and water was allowed up to the beginning of the procedure. The mice (each group: five mice) were placed in a mesh bottom cage for fasting, and they were allowed for acclimation to the new environment for about one hour prior to the start of the experiment. A test compound, which was previously suspended in a 0.5% tragacanth solution, was administered orally to the mice. The fecal pellets were collected at 30, 60 and 120 minutes after the treatment of a test compound, and weighed. The statistical judgment of efficacy was carried out between the control group (treated with a 0.5% tragacanth solution) and the test compound-treated group, and determined by Dunnett's test.

colon of Beagle dogs = assay: Gastrointestinal motility activity in conscious dog; format: in vivo; details: within 2 hours after administration
Excerpt: Beagle dogs of a male were anesthetized with pentobarbital, and the abdominal cavity was opened, and force transducers (F-121S; manufactured by Star Medical Inc.) were sutured onto the seromuscular layer of the colon to make it possible to measure circular muscle contractions. Three or four force transducer were sutured onto in the colon from the lower part to the upper part at regular intervals. The lead wires from the transducers were brought out outside the body through a skin incision made between the scapulae, and were protected in a package of a jacket protector. The gastrointestinal motility activity was measured 2 or 3 weeks after the operation. The lead wires from the force transducers were connected with a telemeter system (DAS-800T: manufactured by Star Medical Inc.), and the gastrointestinal motility activity was analyzed by a personal computer system being connected therewith and recorded. A test compound was suspended in a 0.5% tragacanth solution, and administered via a cannula to be placed in the stomach to the dogs, which were one hour or more after feeding. The measurement was continued for 2 hours after the administration of test compounds.
The number of dogs showing Giant Migrating Contraction (GMC) and defecation within 2 hours after the administration of a test compound is indicated in Table 4.

Acute toxicity = details: male, Std-ddY, mouse, in vivo; mice, intravenous, observed for 7 days
Excerpt: Male mice of Std-ddY strain weighing 25-30 g were used in a group of 5 or more animals. A test compound was suspended in physiological saline solution or a 1% lactose solution and administered intravenously to the mice.

Dopamine D2 receptor = molecular target: T1, Dopamine D2 receptor (Rattus norvegicus, UniProt P61169); assay: Dopamine D2 receptor binding assay ([3H]spiperone); details: rat brain crude synaptosome membrane fractions
T1 construct: Crude synaptosome membrane fractions from rat brain was used as a receptor membrane fraction; from tissue; host or cells: rat brain crude synaptosome membrane fraction
T1 sequence (P61169 whole entry): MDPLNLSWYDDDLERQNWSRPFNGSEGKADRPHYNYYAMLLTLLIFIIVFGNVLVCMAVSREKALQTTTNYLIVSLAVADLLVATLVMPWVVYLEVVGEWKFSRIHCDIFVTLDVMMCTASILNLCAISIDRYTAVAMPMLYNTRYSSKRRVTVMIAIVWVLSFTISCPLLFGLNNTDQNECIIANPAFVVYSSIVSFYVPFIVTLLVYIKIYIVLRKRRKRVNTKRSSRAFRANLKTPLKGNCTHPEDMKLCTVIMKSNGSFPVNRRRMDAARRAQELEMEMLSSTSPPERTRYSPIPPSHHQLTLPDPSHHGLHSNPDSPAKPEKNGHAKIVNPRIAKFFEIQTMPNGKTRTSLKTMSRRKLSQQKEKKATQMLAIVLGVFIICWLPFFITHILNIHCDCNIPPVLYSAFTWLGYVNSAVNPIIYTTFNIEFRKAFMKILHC
Protocol: Dopamine D2 receptor binding assay and the preparation of receptor membrane fractions therefor were carried out according to a modified method of the method of Creese, I. et al., Eur. J. Pharmacol., 46, 337 (1977) and Peroutka, S. J. and Hamik, A., Eur. J. Pharmacol., 148, 297 (1988).
Crude synaptosome membrane fractions from rat brain was used as a receptor membrane fraction, and [^3H]spiperone (D2) was used as a labeled ligand. A buffer (final volume: 1 ml) containing a receptor membrane fraction and a labelled ligand therefor was incubated for a prescribed period in the presence of a test compound in various concentrations, and the radioactive ligand binding to the receptor was separated on the filter paper using a cell harvester (manufactured by Brandel). The radioactivity on the filter was determined by a liquid scintillation counter, and the total binding of the ligand to the receptor was determined. On the other hand, the non-specific binding was determined in the presence of an excess amount of non-labeled ligand (spiperone (D2)), and the specific binding was obtained by subtracting the non-specific binding from the total binding.

[2] = molecular target: T2, Serotonin 4 (5-HT4) receptor (Cavia porcellus, UniProt O70528); assay: Serotonin 4 (5-HT4) receptor binding assay ([3H]-GR113808); details: guinea pig striatum membrane fractions, 0.1 nM [3H]-GR113808
T2 construct: from tissue; host or cells: guinea pig (Std-Hartley) brain striatum membrane fraction
T2 sequence (O70528 whole entry): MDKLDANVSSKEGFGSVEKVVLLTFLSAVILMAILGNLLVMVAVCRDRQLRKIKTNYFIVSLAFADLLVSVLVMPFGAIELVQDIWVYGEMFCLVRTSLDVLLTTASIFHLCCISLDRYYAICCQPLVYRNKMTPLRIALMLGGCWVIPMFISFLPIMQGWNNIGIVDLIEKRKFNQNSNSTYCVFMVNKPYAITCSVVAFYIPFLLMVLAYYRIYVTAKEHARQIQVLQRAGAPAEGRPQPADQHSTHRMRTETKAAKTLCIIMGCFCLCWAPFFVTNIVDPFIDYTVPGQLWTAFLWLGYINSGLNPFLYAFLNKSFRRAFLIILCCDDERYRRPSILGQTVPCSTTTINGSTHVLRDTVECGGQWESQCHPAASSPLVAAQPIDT
Excerpt: Std-Hartley guinea pigs weighing 300-400 g were decapitated, and the brain thereof was immediately taken out, and the striatum was dissected.
Prior to the filtration, the filter to be used was presoaked in a 0.1% solution of polyethylenimine for one hour.

Compound	ED5%, iv (dose required to prolong the QTc intervals by 5%) [1]	Effect (defecation in mice) (mice of Std-ddY strain; 3.0 mg/kg oral)	Effect (defecation in mice) (mice of Std-ddY strain; 1.0 mg/kg oral)	also measured
COc1cc(N)c(Cl)cc1C(=O)NC1CCN(CC2CCN(C(=O)C3CCOCC3)CC2)CC1 (as salt: fumarate) (hydrate or solvate) [Compound A, 4-amino-5-chloro-2-methoxy-N-[1-[1-(4-tetrahydropyranylcarbonyl)-4-piperidinylmethyl]-4-piperidinyl]benzamide.fumarate.1/4 hydrate]				melting point: 235 to 237 °C
COc1cc(N)c(Cl)cc1C(=O)NC1CCN(CC2CCN(C(=O)c3ccco3)CC2)CC1 (as salt: fumarate) (hydrate or solvate) [Compound B, 4-amino-5-chloro-N-[1-[1-(2-furoyl)-4-piperidinyl-methyl]-4-piperidinyl]-2-methoxybenzamide.fumarate.1/2 hydrate]				melting point: 179 to 181 °C
COc1cc(N)c(Cl)cc1C(=O)N[C@H]1CCN(CCCOc2ccc(F)cc2)C[C@H]1OC (relative stereo) [Cisapride, cis-4-amino-5-chloro-N-[1-[3-(4-fluorophenoxy)propyl]-3-methoxy-4-piperidinyl]-2-methoxybenzamide]	0.3 mg/kg	−		Effect (defecation in mice) (mice of Std-ddY strain; 30 mg/kg oral): −; Number of dogs which showed defecation/total number of dogs to be tested (colon of Beagle dogs; 10 mg/kg intragastric): 1/7; Number to dogs which showed GMC/total number of dogs to be tested (colon of Beagle dogs; 10 mg/kg intragastric): 1/7
COc1cc(N)c(Cl)cc1C(=O)NC1CCN(CC2CCN(C(=O)[C@@H]3CCCO3)CC2)CC1 [Compound 2, (S)-4-amino-5-chloro-2-methoxy-N-[1-[1-(2-tetrahydrofurylcarbonyl)-4-piperidinylmethyl]-4-piperidinyl]benzamide.fumarate]	24.9 mg/kg	++	++	LD50 at 7 days (Acute toxicity): > 200 mg/kg; IC50 (Dopamine D2 receptor): > 10000 nM; Number of dogs which showed defecation/total number of dogs to be tested (colon of Beagle dogs; 0.03 mg/kg intragastric): 1/4; Number to dogs which showed GMC/total number of dogs to be tested (colon of Beagle dogs; 0.03 mg/kg intragastric): 1/4; Number of dogs which showed defecation/total number of dogs to be tested (colon of Beagle dogs; 0.1 mg/kg intragastric): 2/5; Number to dogs which showed GMC/total number of dogs to be tested (colon of Beagle dogs; 0.1 mg/kg intragastric): 3/5; Number of dogs which showed defecation/total number of dogs to be tested (colon of Beagle dogs; 0.3 mg/kg intragastric): 3/5; Number to dogs which showed GMC/total number of dogs to be tested (colon of Beagle dogs; 0.3 mg/kg intragastric): 4/5; IC50 [2]: 13.5 nM
COc1cc(N)c(Cl)cc1C(=O)NC1CCN(CC2CCN(C(=O)C3CCOCC3)CC2)CC1 [Compound A, 4-amino-5-chloro-2-methoxy-N-[1-[1-(4-tetrahydropyranylcarbonyl)-4-piperidinylmethyl]-4-piperidinyl]benzamide.fumarate.1/4 hydrate]	16.9 mg/kg	−	−	Effect (defecation in mice) (mice of Std-ddY strain; 10 mg/kg oral): ++
COc1cc(N)c(Cl)cc1C(=O)NC1CCN(CC2CCN(C(=O)c3ccco3)CC2)CC1 [Compound B, 4-amino-5-chloro-N-[1-[1-(2-furoyl)-4-piperidinyl-methyl]-4-piperidinyl]-2-methoxybenzamide.fumarate.1/2 hydrate]	3.2 mg/kg	+	+	Effect (defecation in mice) (mice of Std-ddY strain; 10 mg/kg oral): ++
COc1cc(N)c(Cl)cc1C(=O)NC1CCN(CC2CCN(C(=O)C3CCOC3)CC2)CC1.O=C(O)/C=C/C(=O)O (stereo not shown) [Compound C, 4-amino-5-chloro-2-methoxy-N-[1-[1-(3-tetrahydrofurylcarbonyl)-4-piperidinyl-methyl]-4-piperidinyl]benzamide.fumarate]	9.4 mg/kg	++	+	
COc1cc(N)c(Cl)cc1C(=O)NC1CCN(CC2CCN(C(=O)[C@H]3CCCO3)CC2)CC1 [Compound R, (R)-4-amino-5-chloro-2-methoxy-N-[1-[1-(2-tetrahydrofurylcarbonyl)-4-piperidinyl-methyl]-4-piperidinyl]benzamide.fumarate]	17.4 mg/kg	++	++	IC50 (Dopamine D2 receptor): 948 nM
